Data published in patent US20230002320A1, “COMPOUNDS AND COMPOSITIONS FOR TREATING CONDITIONS ASSOCIATED WITH STING ACTIVITY” (IFM Due, Inc., priority 2019, published 2023).

Target: hSTING (Homo sapiens, UniProt Q86WV6)
Experiment: STING reporter assay (luciferase) in THP1-Dual KO-IFNAR2 cells activated with 2'3' cGAMP
Assay type: cell-based
Details: 15 μM 2'3' cGAMP, 24 h
Method: STING pathway activation by the compounds described herein was measured using THP1-Dual™ cells (KO-IFNAR2).
THP1-Dual™ KO-IFNAR2 Cells (obtained from invivogen) were maintained in RPMI, 10% FCS, 5 ml P/S, 2 mM L-glut, 10 mM Hepes, and 1 mM sodium pyruvate. Compounds were spotted in empty 384 well tissue culture plates (Greiner 781182) by Echo for a final concentration of 0.0017-100 μM. Cells were plated into the TC plates at 40 μL per well, 2×10E6 cells/mL. For activation with STING ligand, 2′3′ cGAMP (MW 718.38, obtained from Invivogen), was prepared in Optimem media.
The following solutions were prepared for each 1×384 plate: • Solution A: 2 mL Optimem with one of the following stimuli: • 60 uL of 10 mM 2′3′ cGAMP ->150 μM stock • Solution B: 2 mL Optimem with 60 μL Lipofectamine 2000->Incubate 5 min at RT
2 mL of solution A and 2 ml Solution B was mixed and incubated for 20 min at room temperature (RT). 20 uL of transfection solution (A+B) was added on top of the plated cells, with a final 2′3′ cGAMP concentration of 15 μM. The plates were then centrifuged immediately at 340 g for 1 minute, after which they were incubated at 37° C., 5% CO2, >98% humidity for 24 h. Luciferase reporter activity was then measured. EC50 values were calculated by using standard methods known in the art.
(§1) Luciferase reporter assay: 10 μL of supernatant from the assay was transferred to white 384-plate with flat bottom and squared wells. one pouch of QUANTI-Luc™ Plus was dissolved in 25 mL of water. 100 μL of QLC Stabilizer per 25 mL of QUANTI-Luc™ Plus solution was added. 50 μL of QUANTI-Luc™ Plus/QLC solution per well was then added. Luminescence was measured on a Platereader (e.g., Spectramax I3X (Molecular Devices GF3637001)).
Luciferase reporter activity was then measured. EC50 values were calculated by using standard methods known in the art.
as §1, with “squared wells,” for “squared wells.”, “Luminescence is” for “Luminescence was”

Chain of hSTING (Q86WV6 whole entry R71H/G230A/H232R/R293Q, form open): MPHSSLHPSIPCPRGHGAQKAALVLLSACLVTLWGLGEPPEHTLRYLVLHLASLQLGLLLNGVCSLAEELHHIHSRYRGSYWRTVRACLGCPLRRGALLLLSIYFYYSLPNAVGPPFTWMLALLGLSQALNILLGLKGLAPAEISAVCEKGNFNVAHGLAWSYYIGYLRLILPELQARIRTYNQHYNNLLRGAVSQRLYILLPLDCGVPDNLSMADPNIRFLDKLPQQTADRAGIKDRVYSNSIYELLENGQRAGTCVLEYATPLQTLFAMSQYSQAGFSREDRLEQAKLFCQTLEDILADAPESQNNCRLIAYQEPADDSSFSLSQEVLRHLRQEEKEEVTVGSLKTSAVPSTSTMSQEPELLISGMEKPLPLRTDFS

Row | Compound | EC50 [µM]
1 | CC(C)n1cc(-c2ccc3[nH]cc(NC(=O)Nc4ccc(C(F)(F)F)cc4)c3c2)cn1 [Compound 104, 1-(5-(1-isopropyl-1H-pyrazol-4-yl)-1H-indol-3-yl)-3-(4-(trifluoromethyl)phenyl)urea] | 0.04 to 0.2
2 | O=C(Nc1ccc(C(F)(F)F)cc1)Nc1c[nH]c2ccc(-c3ccc(CO)c(F)c3)cc12 [Compound 127, 1-(5-(3-fluoro-4-(hydroxymethyl)phenyl)-1H-indol-3-yl)-3-(4-(trifluoromethyl)phenyl)urea] | 0.2 to 1
3 | CCCCCCc1ccc(-c2ccc3[nH]cc(NC(=O)Nc4ccc(C(F)(F)F)cc4)c3c2)cc1 [Compound 211, 1-(5-(4-hexylphenyl)-1H-indol-3-yl)-3-(4-(trifluoromethyl)phenyl)urea] | 0.2 to 1
4 | O=C(Nc1ccc(C(F)(F)F)cc1)Nc1c[nH]c2cc(F)c(-c3cnn(C(F)F)c3)cc12 [Compound 212, 1-(5-(1-(difluoromethyl)-1H-pyrazol-4-yl)-6-fluoro-1H-indol-3-yl)-3-(4-(trifluoromethyl)phenyl)urea] | 0.04 to 0.2
5 | CC(C)n1cc(-c2cc3c(NC(=O)Nc4ccc(C(F)(F)F)cc4)c[nH]c3cc2F)cn1 [Compound 213] | 0.2 to 1
6 | N#Cc1csc(-c2ccc3[nH]cc(NC(=O)Nc4ccc(C(F)(F)F)cc4)c3c2)c1 [Compound 216] | 0.04 to 0.2
7 | CC(C)(C#N)c1ccc(-c2ccc3[nH]cc(NC(=O)Nc4ccc(C(F)(F)F)cc4)c3c2)cc1 [Compound 217] | 5 to 100
8 | O=C(Nc1ccc(C(F)(F)F)cc1)Nc1c[nH]c2ccc(-c3cccc(OC(F)(F)F)c3)cc12 [Compound 220] | 0.2 to 1
9 | CC(C)c1ccc(-c2ccc3[nH]cc(NC(=O)Nc4ccc(C(F)(F)F)cc4)c3c2)cc1 [Compound 223, 1-(5-(4-isopropylphenyl)-1H-indol-3-yl)-3-(4-(trifluoromethyl)phenyl)urea] | 0.2 to 1
10 | O=C(Nc1ccc(C(F)(F)F)cc1)Nc1c[nH]c2ccc(-c3cccc4cccnc34)cc12 [Compound 224, 1-(5-(quinolin-8-yl)-1H-indol-3-yl)-3-(4-(trifluoromethyl)phenyl)urea] | 1 to 5
11 | O=C(Nc1ccc(C(F)(F)F)cc1)Nc1c[nH]c2ccc(-c3cccc(Cl)c3)cc12 [Compound 226] | 0.2 to 1
12 | O=C(Nc1ccc(C(F)(F)F)cc1)Nc1c[nH]c2ccc(-c3cc(Cl)nc(Cl)c3)cc12 [Compound 227] | 0.2 to 1
13 | O=C(Nc1ccc(C(F)(F)F)cc1)Nc1c[nH]c2ccc(-c3cncc(Cl)c3)cc12 [Compound 229] | 0.2 to 1
14 | CC(=O)c1ccc(-c2ccc3[nH]cc(NC(=O)Nc4ccc(C(F)(F)F)cc4)c3c2)s1 [Compound 231] | 0.2 to 1
15 | O=C(Nc1ccc(C(F)(F)F)cc1)Nc1c[nH]c2ccc(-c3cnn(-c4ccccc4)c3)cc12 [Compound 234] | 0.04 to 0.2
16 | O=C(Nc1ccc(C(F)(F)F)cc1)Nc1c[nH]c2ccc(-c3cnn(CC4CC4)c3)cc12 [Compound 235] | 0.04 to 0.2
17 | COCCn1cc(-c2ccc3[nH]cc(NC(=O)Nc4ccc(C(F)(F)F)cc4)c3c2)cn1 [Compound 236] | 0.2 to 1
18 | CCCc1ccc(-c2ccc3[nH]cc(NC(=O)Nc4ccc(C(F)(F)F)cc4)c3c2)cc1 [Compound 238] | 1 to 5
19 | O=C(Nc1ccc(C(F)(F)F)cc1)Nc1c[nH]c2ccc(-c3cc(F)cc(F)c3)cc12 [Compound 240] | 0.2 to 1
20 | O=C(Nc1ccc(C(F)(F)F)cc1)Nc1c[nH]c2ccc(-c3ccc(F)c(F)c3)cc12 [Compound 241] | 1 to 5
21 | O=C(Nc1ccc(C(F)(F)F)cc1)Nc1c[nH]c2ccc(-c3ccc(F)cc3F)cc12 [Compound 242] | 1 to 5
22 | Nc1cc(-c2ccc3[nH]cc(NC(=O)Nc4ccc(C(F)(F)F)cc4)c3c2)ccn1 [Compound 274, 1-(5-(2-aminopyridin-4-yl)-1H-indol-3-yl)-3-(4-(trifluoromethyl)phenyl)urea] | 1 to 5
23 | CC(C)(C)Oc1ccc(-c2ccc3[nH]cc(NC(=O)Nc4ccc(C(F)(F)F)cc4)c3c2)cc1 [Compound 288, 1-(5-(4-(tert-butoxy)phenyl)-1H-indol-3-yl)-3-(4-(trifluoromethyl)phenyl)urea] | 0.2 to 1
24 | CC(C)(O)Cn1cc(-c2ccc3[nH]cc(NC(=O)Nc4ccc(C(F)(F)F)cc4)c3c2)cn1 [Compound 297, 1-(5-(1-(2-hydroxy-2-methylpropyl)-1H-pyrazol-4-yl)-1H-indol-3-yl)-3-(4-(trifluoromethyl)phenyl)urea] | 0.2 to 1

The next lines start with the values.

Row | EC50 [µM] | Compound
25 | 0.2 to 1 | O=C(Nc1ccc(C(F)(F)F)cc1)Nc1c[nH]c2ccc(-c3ccccc3)cc12 [Compound 101, 1-(5-phenyl-1H-indol-3-yl)-3-(4-(trifluoromethyl)phenyl)urea]
26 | 1 to 5 | Cn1ccc(-c2ccc3[nH]cc(NC(=O)Nc4ccc(C(F)(F)F)cc4)c3c2)n1 [Compound 214, 1-(5-(1-methyl-1H-pyrazol-3-yl)-1H-indol-3-yl)-3-(4-(trifluoromethyl)phenyl)urea]
27 | 0.2 to 1 | CN(C)C(=O)c1ccc(-c2ccc3[nH]cc(NC(=O)Nc4ccc(C(F)(F)F)cc4)c3c2)c(F)c1 [Compound 215]
28 | 0.2 to 1 | O=C(Nc1ccc(C(F)(F)F)cc1)Nc1c[nH]c2ccc(-c3ccc(OC(F)F)cc3)cc12 [Compound 218]
29 | 0.2 to 1 | CN(C)C(=O)c1ccc(-c2ccc3[nH]cc(NC(=O)Nc4ccc(C(F)(F)F)cc4)c3c2)cc1 [Compound 219]
30 | 0.2 to 1 | O=C(Nc1ccc(C(F)(F)F)cc1)Nc1c[nH]c2ccc(-c3cccc4ncccc34)cc12 [Compound 221, 1-(5-(quinolin-5-yl)-1H-indol-3-yl)-3-(4-(trifluoromethyl)phenyl)urea]
31 | 1 to 5 | O=C(Nc1ccc(C(F)(F)F)cc1)Nc1c[nH]c2ccc(-c3c(F)cccc3F)cc12 [Compound 222]
32 | 0.2 to 1 | COc1cccc(-c2ccc3[nH]cc(NC(=O)Nc4ccc(C(F)(F)F)cc4)c3c2)c1 [Compound 225]
33 | 0.2 to 1 | COCc1cncc(-c2ccc3[nH]cc(NC(=O)Nc4ccc(C(F)(F)F)cc4)c3c2)c1 [Compound 228]
34 | 0.2 to 1 | O=C(Nc1ccc(C(F)(F)F)cc1)Nc1c[nH]c2ccc(-c3cccnc3)cc12 [Compound 230]
35 | 0.2 to 1 | N#CCCn1cc(-c2ccc3[nH]cc(NC(=O)Nc4ccc(C(F)(F)F)cc4)c3c2)cn1 [Compound 232]
36 | 0.04 to 0.2 | CCn1cc(-c2ccc3[nH]cc(NC(=O)Nc4ccc(C(F)(F)F)cc4)c3c2)cn1 [Compound 237]
37 | 1 to 5 | O=C(Nc1ccc(C(F)(F)F)cc1)Nc1c[nH]c2ccc(-c3ccc(Cl)c(Cl)c3)cc12 [Compound 239]
38 | 0.2 to 1 | CC(C)n1cc(-c2ccc3[nH]cc(NC(=O)Nc4ccc(C5CCCCC5)nc4)c3c2)cn1 [Compound 243]
39 | 1 to 5 | O=C(Nc1ccc(C(F)(F)F)cc1)Nc1c[nH]c2ccc(-c3ccc(CO)cc3)cc12 [Compound 282, 1-(5-(4-(hydroxymethyl)phenyl)-1H-indol-3-yl)-3-(4-(trifluoromethyl)phenyl)urea]
